Laboratory results published in US6949574B2 (Bristol-Myers Squibb Company, priority 2002, dated 2005).
Where two headings read alike, the source gives them in different places.

Biological target: T1, human FAAH (Homo sapiens, UniProt O00519)
T1 construct: expressed in transfected cells; host or cells: H4 cells (H4-FAAH, Geneticin-selected); crude membrane homogenates
T1 sequence (O00519 1-579): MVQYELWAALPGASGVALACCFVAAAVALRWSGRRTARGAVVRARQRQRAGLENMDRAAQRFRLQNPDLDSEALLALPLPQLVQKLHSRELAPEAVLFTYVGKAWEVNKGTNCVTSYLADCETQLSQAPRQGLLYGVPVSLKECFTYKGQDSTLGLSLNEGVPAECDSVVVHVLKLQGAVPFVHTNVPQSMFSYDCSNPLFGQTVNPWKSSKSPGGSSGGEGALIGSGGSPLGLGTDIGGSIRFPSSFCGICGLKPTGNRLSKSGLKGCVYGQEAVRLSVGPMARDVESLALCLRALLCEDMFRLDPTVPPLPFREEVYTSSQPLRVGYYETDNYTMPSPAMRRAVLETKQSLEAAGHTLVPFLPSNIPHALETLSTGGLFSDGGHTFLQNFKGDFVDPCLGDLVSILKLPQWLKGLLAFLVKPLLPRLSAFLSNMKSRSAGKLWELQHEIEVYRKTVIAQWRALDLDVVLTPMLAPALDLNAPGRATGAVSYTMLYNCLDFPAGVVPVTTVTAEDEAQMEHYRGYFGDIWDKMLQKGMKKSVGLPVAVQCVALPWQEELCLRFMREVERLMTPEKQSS
Assay: FAAH activity in membrane homogenates of H4-FAAH cells, [3H]-anandamide hydrolysis
Type: biochemical
Experimental: Homogenates of crude membranes were prepared from H4 cells that express transfected human FAAH (H4-FAAH cells). Briefly, cells were grown in DMEM supplemented with 10% FBS and Geneticin at a final concentration of 500 μg/ml (Gibco BRL, Rockville, Md.). Confluent cultures of H4-FAAH cells were rinsed twice with phosphate-buffered saline [138 mM NaCl, 4.1 mM KCl, 5.1 mM Na2PO4, 1.5 mM KH2PO4 (pH 7.5), 37° C.] and incubated for 5 to 10 minutes at 4° C. in lysis buffer [1 mM sodium bicarbonate]. Cells were transferred from plates to polypropylene tubes (16×100 mm), homogenized and centrifuged at 32,000×g for 30 minutes. Pellets were resuspended by homogenization in lysis buffer and centrifuged at 32,000×g for 30 minutes. Pellets were resuspended in lysis buffer (15-20 μg protein/ml) then stored at −80° C. until needed. On the day of an experiment, membranes were diluted to 2.67 μg protein/ml in 125 mM Tris-Cl, pH 9.0.
Activity of FAAH was measured using a modification of the method described by Omeir et al., 1995 (Life Sci 56:1999, 1995). Membrane homogenates (240 ng protein) were incubated at room temperature for one hour with 1.67 nM anandamide [ethanolamine 1-^3H] (available from American Radiolabeled Chemical Inc., St Louis, Mo.) and 10 μM anandamide (available from Sigma/RBI, St. Louis, Mo.) in the absence and presence of inhibitors. The reaction was stopped by the addition of 1 volume of a solution of 1:1 methanol and dichloroethane. The mixture was shaken and then centrifuged at 1000×g for 15 minutes to separate the aqueous and organic phases. An aliquot of the aqueous phase, containing [^3H]-ethanolamine was withdrawn and counted by scintillation spectroscopy. Data were expressed as the percentage of [^3H]-ethanolamine formed versus vehicle, after subtraction of the background radioactivity determined in the presence of 10 μM arachidonyl trifluoromethyl ketone (ATFMK), an inhibitor of FAAH. IC50 values were determined using a four-parameter logistic equation for dose-response curves.

[1] = H4-FAAH cell membranes, 10 μM anandamide, room temperature, one hour, read-out: IC50

| Structure (SMILES) | IC50 [1] [nM] | IC50 [nM] |
| --- | --- | --- |
| O=C(Nc1ccc(Oc2ccccc2)cc1)O/N=C/c1cccnc1 [Example 71, 3-Pyridinecarboxaldehyde, O-[[(4-phenoxyphenyl)amino]carbonyl]oxime] | < 10 |  |
| O=C(Nc1ccc2oc3ccccc3c2c1)O/N=C/c1cccnc1 [Example 152, 3-Pyridinecarboxaldehyde, O-[[(2-dibenzofuranyl)amino]carbonyl]oxime] | 101 to 500 |  |
| CCCCCCOc1ccc(NC(=O)ON=C(C)C)cc1 [Example 22, 2-Propanone, O-[[(4-hexyloxyphenyl)amino]carbonyl]oxime] | 10 to 100 |  |
| CCCCOc1ccc(NC(=O)Oc2ccc(Cl)cc2)cc1 [Example 100] | 10 to 100 |  |
| CCCCOc1ccc(CNC(=O)ON=C(C)C)cc1 [Example 61, 2-Propanone, O-[[(4-butoxyphenylmethyl)amino]carbonyl]oxime] | > 500 |  |
| O=C(Nc1ccc(OCCc2ccccc2)cc1)O/N=C/c1cccnc1 [Example 79, 3-Pyridinecarboxaldehyde, O-[[[4-(2-phenylethoxy)phenyl]amino]carbonyl]oxime] | < 10 |  |
| CCOc1ccc(NC(=O)ON=C(C)C)cc1 [Example 6, 2-Propanone, O-[[(4-ethoxyphenyl)amino]carbonyl]oxime] | 101 to 500 |  |
| CCCCCCCCOc1ccc(NC(=O)O/N=C/c2ccccc2)cc1 [Example 45, Benzaldehyde, O-[[(4-octyloxyphenyl)amino]carbonyl]oxime] | < 10 |  |
| CCCCCCCCC(=O)Nc1ccc(NC(=O)O/N=C/c2ccc(F)c(F)c2)cc1 [Example 140, 3,4-Difluorobenzaldehyde, O-[[(4-Nonanoylamino-phenyl)amino]carbonyl]oxime] | 10 to 100 |  |
| CCCCCCCCCOc1ccc(NC(=O)O/N=C/c2cccc(F)c2F)cc1 [Example 55, 2,3-Difluorobenzaldehyde, O-[[(4-nonyloxyphenyl)amino]carbonyl]oxime] | < 10 |  |
| CCCCOc1ccc(NC(=O)O/N=C/c2ccccc2)cc1 [Example 39, Benzaldehyde, O-[[(4-butoxyphenyl)amino]carbonyl]oxime] | < 10 |  |
| CCCCCCCCC(=O)Nc1ccc(NC(=O)O/N=C/c2cccc(C(F)(F)F)c2)cc1 [Example 138, 3-Trifluoromethylbenzaldehyde, O-[[(4-Nonanoylamino-phenyl)amino]carbonyl]oxime] | 10 to 100 |  |
| CCCCCCCCOc1ccc(NC(=O)Oc2ccccc2F)cc1 [Example 99, 4-Octyloxyphenylcarbamic acid, 2-fluorophenyl ester] | 10 to 100 |  |
| CCCCCCCCCOc1ccc(NC(=O)O/N=C/c2cccnc2)cc1 [Example 4, 3-Pyridinecarboxaldehyde, O-[[[4-(nonyloxy)phenyl]amino]carbonyl]oxime] |  | < 10 |
| CCCCCOc1ccc(NC(=O)ON=C(C)C)cc1 [Example 8, 2-Propanone, O-[[(4-pentyloxyphenyl)amino]carbonyl]oxime] | 10 to 100 |  |
| CCCCCCCCCCCOc1ccc(NC(=O)O/N=C/c2ccccc2)cc1 [Example 37, Benzaldehyde, O-[[(4-undecyloxyphenyl)amino]carbonyl]oxime] | < 10 |  |
| CCCCOc1ccc(NC(=O)Oc2ccccc2OC)cc1 [Example 110, 4-Butoxyphenylcarbamic acid, 2-methoxyphenyl ester] | > 500 |  |
| CCc1ccc(-c2ccc(NC(=O)O/N=C/c3cccnc3)cc2)cc1 [Example 70, 3-Pyridinecarboxaldehyde, O-[[(4′-ethyl-[1,1′-biphenyl]-4-yl)amino]carbonyl]oxime] | 10 to 100 |  |
| CCCCOc1ccc(NC(=O)O/N=C/c2ccc(F)cc2)cc1OC [Example 20, 4-Fluorobenzaldehyde, O-[[(4-butoxy-3-methoxyphenyl)amino]carbonyl]oxime] | 101 to 500 |  |
| CCCCOc1ccc(CNC(=O)Oc2ccc(C(C)C)cc2)cc1 [Example 117, 4-(Butoxyphenylmethyl)carbamic acid, 4-(1-methylethyl)phenyl ester] | 10 to 100 |  |
